Experimental data from patent US8507488B2, “Fused nitrogen containing heterocycles and compositions thereof as kinase inhibitors” (IRM LLC, priority 2008, dated 2013).

Legend:
Tel-TrkA = molecular target: T1, Tel-TrkA (Homo sapiens, UniProt P04629); test: Inhibition of proliferation of Ba/F3 cells expressing Tel-TrkA (BaF3/Tel-TrkA, luciferase/Bright Glo readout); format: cell-based; conditions: read-out: Ba/F3 Tel-TrkA IC 50
T1 construct: dimerization domain of Tel (ETV6) transcription factor (fusion partner, human ETV6 P41212); expressed in transfected cells; host or cells: luciferase expressing Ba/F3 murine hematopoietic progenitor cells; the other entry of the earlier key: ETV6 (P41212, Transcription factor ETV6)
T1 sequence (P04629 510-796 limits assumed): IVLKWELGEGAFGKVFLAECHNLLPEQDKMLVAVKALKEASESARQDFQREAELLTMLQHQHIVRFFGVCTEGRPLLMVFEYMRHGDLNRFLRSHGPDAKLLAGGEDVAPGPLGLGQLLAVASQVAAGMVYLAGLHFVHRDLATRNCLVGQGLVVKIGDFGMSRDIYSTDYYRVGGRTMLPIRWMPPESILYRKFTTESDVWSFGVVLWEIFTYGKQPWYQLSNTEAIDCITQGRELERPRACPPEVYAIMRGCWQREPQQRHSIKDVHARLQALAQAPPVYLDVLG
Experimental: (§1) Test compounds were dissolved in DMSO (10 mM) and transferred into 1.4 mL flat bottom or V-shaped Matrix tubes carrying a unique 2D matrix chip by individual compound hubs. The numbers of these chips were distinctively linked to the individual compound identification numbers. The stock solutions were stored at −20° C. if not used immediately. For the test procedure the vials were defrosted and identified by a scanner whereby a working sheet is generated that guides the subsequent working steps.
(§2) Compound dilutions were made in 384 well plates. This format enabled the assay of maximally 28 individual test compounds at 12 concentrations (single points) including 2 reference compounds. The dilution protocol included the production of pre-dilution plates, master plates and assay plates: • Compound plates: 30 μL of individual compound (10 mM) DMSO solution including standard compound were transferred into columns 1 and 13 of a 384 well plate. 20 μL of DMSO were added to the rest of the wells and the compounds were serially diluted (1:3) by transferring 10 μL from a well in column 1 or 13 to the next well in column 2 or 14 respectively and successively with the help of a Minitrack robot. • Assay plates: Identical assay plates were then prepared by adding […] each of compound dilutions of the compound plates into 384-well “assay plates”. In the following the compounds were mixed with 50 μL of assays components (cells or enzyme) and tested for their inhibitory activity.
(§3) Compounds of Formula (I) were tested for their antiproliferative effect on Ba/F3 cells expressing either Tel-TrkA, Tel-TrkB or Tel-TrkC and an additional panel of 34 selected diverse kinases activated by fusion to the dimerizing partners Bcr or Tel (Abl, A1K, BMX, EphA3, EphB2, FGFR2, FGFR3, FGFR4, FGR, FLT1, FLT3, FLT4, FMS, IGF1R, InsR, JAK1, JAK2, JAK3, KDR, Kit, Lck, Lyn, MER, MET, PDGFRb, RET, RON, Ros-1, Src, Aurora, TIE2, TYK2, Tie1, ZAP70). The antiproliferative effect of these compounds on the different cell lines and on the non transformed cells were tested at 12 different concentrations of 3-fold serially diluted compounds in 384 well plates as described above (in media lacking IL3). The IC50 values of the compounds the different cell lines were determined from dose response curves.
(§4) The cell line used is the luciferase expressing Ba/F3 murine hematopoietic progenitor cell line transformed with human Tel-TrkA, Tel-TrkB or Tel-TrkC cDNAs (Ba/F3 EN A/B/C). These cells maintained in RPMI/10% fetal bovine serum (RPMI/FCS) supplemented with penicillin 50 mg/mL, streptomycin 50 mg/mL and L-glutamine […]. Untransformed Ba/F3 cells were similarly maintained with the addition 5 ng/ml of murine recombinant IL3. 50 μl of a Ba/F3 or Ba/F3 EN A/B/C cell suspension were plated in Greiner 384 well microplates (white)) at a density of 2000 cells per well. […] The cells were incubated for 48 hours at 37° C., 5% CO2. 25 μl of Bright Glo® (Promega) luciferase substrate is added to each well. The emited luminiscence is quantified using the ACQUEST™ luminescence system (Molecular Devices). IC50 values were calculated by linear regression analysis of the percentage inhibition of each compound at 12 concentrations.

Tel-TrkB = molecular target: T2, Tel-TrkB (Homo sapiens, UniProt Q16620); test: Inhibition of proliferation of Ba/F3 cells expressing Tel-TrkB (BaF3/Tel-TrkB); format: cell-based; conditions: Ba/F3 Tel-TrkB cells; read-out: Ba/F3 Tel-TrkB IC 50
T2 construct: dimerization domain of Tel (ETV6) transcription factor (fusion partner, human ETV6 P41212); expressed in transfected cells; host or cells: luciferase expressing Ba/F3 murine hematopoietic progenitor cells; the other entry of the earlier key: ETV6 (P41212, Transcription factor ETV6)
T2 sequence (Q16620 538-822 limits assumed): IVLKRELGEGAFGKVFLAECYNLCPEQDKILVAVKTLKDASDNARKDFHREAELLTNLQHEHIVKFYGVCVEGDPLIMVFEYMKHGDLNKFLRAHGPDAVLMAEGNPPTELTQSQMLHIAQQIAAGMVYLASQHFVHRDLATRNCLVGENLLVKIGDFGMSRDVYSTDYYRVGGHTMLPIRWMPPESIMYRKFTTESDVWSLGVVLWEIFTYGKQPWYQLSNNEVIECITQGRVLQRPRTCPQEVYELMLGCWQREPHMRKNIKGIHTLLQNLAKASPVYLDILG
Experimental: as §1, §2, §3, §4

[1] = molecular target: T3, full length rTrkA and mNGF (Rattus norvegicus, UniProt P35739); test: Inhibition of proliferation of Ba/F3 cells co-expressing full length rTrkA and mNGF (BaF3/TrkA-NFG); format: cell-based; conditions: BaF3 TRKA-NGF cells, CTG readout
T3 construct: co-expressing full length rTrkA and mNGF; expressed in transfected cells; host or cells: Ba/F3 cells
T3 sequence (P35739 33-799): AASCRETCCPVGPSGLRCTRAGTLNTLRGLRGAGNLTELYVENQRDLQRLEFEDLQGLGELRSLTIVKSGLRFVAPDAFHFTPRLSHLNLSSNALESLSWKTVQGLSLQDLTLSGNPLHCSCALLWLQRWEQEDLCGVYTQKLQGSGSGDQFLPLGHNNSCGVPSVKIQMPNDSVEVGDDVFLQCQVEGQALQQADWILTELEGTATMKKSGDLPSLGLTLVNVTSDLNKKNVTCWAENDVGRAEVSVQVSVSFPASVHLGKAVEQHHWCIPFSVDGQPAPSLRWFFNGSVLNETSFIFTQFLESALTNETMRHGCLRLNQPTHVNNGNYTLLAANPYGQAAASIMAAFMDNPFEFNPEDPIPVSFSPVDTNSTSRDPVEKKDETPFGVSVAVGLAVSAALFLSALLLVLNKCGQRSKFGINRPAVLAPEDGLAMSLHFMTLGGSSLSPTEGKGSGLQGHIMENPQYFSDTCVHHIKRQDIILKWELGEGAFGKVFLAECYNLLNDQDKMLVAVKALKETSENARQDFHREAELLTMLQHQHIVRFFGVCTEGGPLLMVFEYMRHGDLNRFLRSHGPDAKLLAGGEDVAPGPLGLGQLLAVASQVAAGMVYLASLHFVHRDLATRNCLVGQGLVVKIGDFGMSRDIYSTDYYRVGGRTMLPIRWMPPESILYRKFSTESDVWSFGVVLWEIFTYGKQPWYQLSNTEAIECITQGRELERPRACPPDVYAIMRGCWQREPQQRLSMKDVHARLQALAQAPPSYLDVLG
T3 sequence (P01139 122-241 partner): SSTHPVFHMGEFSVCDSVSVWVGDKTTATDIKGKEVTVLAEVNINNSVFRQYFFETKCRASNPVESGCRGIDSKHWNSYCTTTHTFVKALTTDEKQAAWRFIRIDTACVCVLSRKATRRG

parental BaF3 cells = test: Proliferation of parental (untransformed) Ba/F3 cells maintained with IL3; format: cell-based, murine; conditions: Mus musculus, BaF3, parental Ba/F3 cells; read-out: Ba/F3 IC 50
Experimental: as §1, §2
The cell line used is the luciferase expressing Ba/F3 murine hematopoietic progenitor cell line transformed with human Tel-TrkA, Tel-TrkB or Tel-TrkC cDNAs (Ba/F3 EN A/B/C). These cells maintained in RPMI/10% fetal bovine serum (RPMI/FCS) supplemented with penicillin 50 mg/mL, streptomycin 50 mg/mL and L-glutamine […]. Untransformed Ba/F3 cells were similarly maintained with the addition 5 ng/ml of murine recombinant IL3. 50 μl of a Ba/F3 or Ba/F3 EN A/B/C cell suspension were plated in Greiner 384 well microplates (white)) at a density of 2000 cells per well. 50 nl of serially diluted test compound (10-0.0001 mM in DMSO solution) is added to each well. The cells were incubated for 48 hours at 37° C., 5% CO2. 25 μl of Bright Glo® (Promega) luciferase substrate is added to each well. The emited luminiscence is quantified using the ACQUEST™ luminescence system (Molecular Devices). IC50 values were calculated by linear regression analysis of the percentage inhibition of each compound at 12 concentrations.

Structure (SMILES)	IC50 (Tel-TrkA) [nM]	IC50 (Tel-TrkB) [nM]	BaF3 TRKA-NGF CTG IC 50 [1] [nM]	IC50 (parental BaF3 cells) [nM]
Fc1ccc(F)c(C2CCCN2c2ccc3ncn(-c4cccc(-c5ncc[nH]5)c4)c3n2)c1 (stereo not drawn) [Table 1-Compound 4]	1600	790		
Fc1cccc(C2COCCN2c2ccc3ncc(-c4cccc(N5CCOCC5)n4)n3n2)c1 (stereo not drawn) [Table 2-Compound 10]	6.9	6.2	8.8	> 10000
CC(C)(C)OC(=O)N1CCN(c2cccc(-c3cnc4ccc(N5CCOCC5c5cccc(F)c5)nn34)n2)CC1 (stereo not drawn) [Table 2-Compound 16]	100	120	140	> 7670
CCOC(=O)N1CCC(n2c(=O)[nH]c3cc(-c4cnc5ccc(N6CCOCC6c6cccc(F)c6)nn45)ccc32)CC1 (stereo not drawn) [Table 2-Compound 19]	2170	1700	1420	5050
Fc1cccc(C2COCCN2c2ccc3ncc(-c4ccc(CN5CCOCC5)cn4)n3n2)c1 (stereo not drawn) [Table 2-Compound 20]	390	390	280	> 10000
OCCC1CCN(c2cccc(-c3cnc4ccc(N5CCOCC5c5cccc(F)c5)nn34)n2)CC1 (stereo not drawn) [Table 2-Compound 23]	10	24	12	> 10000
O=C(NCCO)c1ccc(-c2cnc3ccc(N4CCCC4c4cccc(F)c4)nn23)cn1 (stereo not drawn) [Table 3-Compound 19]	1020	540	370	> 10000
O=C(c1ccc(-c2cnc3ccc(N4CCCC4c4cccc(F)c4)nn23)cn1)N1CCC(O)CC1 (stereo not drawn) [Table 3-Compound 26]	1020	540	370	> 10000
COc1ncc(-c2cnc3ccc(N4CCCC4c4cccc(F)c4)nn23)s1 (stereo not drawn) [Table 3-Compound 27]	140	93	320	> 10000
Fc1cccc(C2CCCN2c2ccc3ncc(-c4csc(CN5CCNCC5)n4)n3n2)c1 (stereo not drawn) [Table 3-Compound 30]	1100	1060	1340	> 10000
O=C(Nc1cnc(-c2cnc3ccc(N4CCCC4c4cccc(F)c4)nn23)cn1)C1CC1 (stereo not drawn) [Table 3-Compound 41]	200	210	110	200
CC1CN(Cc2cccc(-c3cnc4ccc(N5CCCC5c5cccc(F)c5)nn34)n2)CC(C)O1 (stereo not drawn) [Table 3-Compound 44]	1120	1140	1200	> 10000
OC1CCN(Cc2cccc(-c3cnc4ccc(N5CCCC5c5cccc(F)c5)nn34)n2)C1 (stereo not drawn) [Table 3-Compound 45]	1020	790	1020	8060
Fc1cccc(C2CCCN2c2ccc3ncc(-c4cccc(OCCN5CCOCC5)n4)n3n2)c1 (stereo not drawn) [Table 4-Compound 25]	10	7.1	28	7500
